KC/GRO level and TNF-alpha level data for 1 molecule are collected here from patent US12097203B2, “Combination therapies comprising SHP2 inhibitors and PD-1 inhibitors” (HUYABIO International, LLC, priority 2021, dated 2024).

The test system of this test is MC38 tumor. The experiment in a line: Cytokine detection assay (V-Plex Proinflammatory Panel 1 Mouse Kit) in MC38 tumor bearing animals. It counts as in vivo, mice. The settings on record: MC38 tumor model, plasma from tumor bearing animals 2 hours post last dose. The text has this: Reagents: GH21001 (TNO-155), GH21005 (compound of Formula Ia) were supplied by HUYA Biosciences, USA, RMC-4550 was purchased from MCE, China. Osimertinib was purchased from Selleck, China. Cisplatin was purchased from Qilu Pharma, China. Anti-PD-1 (RMP1-14) and Rat IgG2a antibodies were purchased from BioXCell (China).
All cell lines were maintained in culture and cells in exponential growth phase were harvested and quantitated by cell counter before tumor inoculation. MC38 tumor cells (1×10^6) in 0.1 ml of PBS were inoculated into the right front flank of female C57/Bl animals, mean tumor size approximately 112 mm^3 at the start of treatment.
The date of randomization and treatment initiation was denoted as day 0. Tumor volumes were measured twice per week in two dimensions using a caliper, and the volume will be expressed in mm3 using the formula: V=(L×W×W)/2, where V is tumor volume, L is tumor length (the longest tumor dimension) and W is tumor width (the longest tumor dimension perpendicular to L). Dosing volume was 10 mL/kg/day. […]
Cytokine detection assay: V-Plex Proinflammatory Panel 1 Mouse Kit (Mesoscale Discovery) was used to determine cytokine levels in plasma isolated from tumor bearing animals 2 hours post last dose. Plasma from tumor bearing animals was analyzed as described by the manufacture's guidelines. […]

In the case of `C[C@@H]1OCC2(CCN(c3cnc(Sc4cccc(NC(=O)c5c(O)nc6n(c5=O)CCCC6)c4Cl)cn3)CC2)[C@@H]1N` [compound of Formula (Ia), N-(3-((5-((3S,4S)-4-amino-3-methyl-2-oxa-8-azaspiro[4.5]decan-8-yl)pyrazin-2-yl)thio)-2-chlorophenyl)-2-hydroxy-4-oxo-6,7,8,9-tetrahydro-4H-pyrido[1,2-a]pyrimidine-3-carboxamide], the KC/GRO level result (FIG. 2A) is on record as “slight decreases”. Also, the TNF-alpha level entry (FIG. 2B) is “slight decreases”.
